Data reported in patent US20240123078A1, “COMPOUNDS AND METHODS FOR MODULATING IMMUNE-RELATED PROTEINS” (Vividion Therapeutics, Inc., priority 2019, published 2024).

Columns and labels:
Assay in all cases: Cysteine reactivity ABPP
Type in all cases: binding
Details in all cases: 100
[1] = molecular target: T1, UBASH3A Ubiquitin-associated and SH3 domain-containing protein A C435 (P57075) (Homo sapiens, UniProt P57075)
T1 construct: endogenous in cells; host or cells: primary human T cells
T1 sequence (P57075 1-661): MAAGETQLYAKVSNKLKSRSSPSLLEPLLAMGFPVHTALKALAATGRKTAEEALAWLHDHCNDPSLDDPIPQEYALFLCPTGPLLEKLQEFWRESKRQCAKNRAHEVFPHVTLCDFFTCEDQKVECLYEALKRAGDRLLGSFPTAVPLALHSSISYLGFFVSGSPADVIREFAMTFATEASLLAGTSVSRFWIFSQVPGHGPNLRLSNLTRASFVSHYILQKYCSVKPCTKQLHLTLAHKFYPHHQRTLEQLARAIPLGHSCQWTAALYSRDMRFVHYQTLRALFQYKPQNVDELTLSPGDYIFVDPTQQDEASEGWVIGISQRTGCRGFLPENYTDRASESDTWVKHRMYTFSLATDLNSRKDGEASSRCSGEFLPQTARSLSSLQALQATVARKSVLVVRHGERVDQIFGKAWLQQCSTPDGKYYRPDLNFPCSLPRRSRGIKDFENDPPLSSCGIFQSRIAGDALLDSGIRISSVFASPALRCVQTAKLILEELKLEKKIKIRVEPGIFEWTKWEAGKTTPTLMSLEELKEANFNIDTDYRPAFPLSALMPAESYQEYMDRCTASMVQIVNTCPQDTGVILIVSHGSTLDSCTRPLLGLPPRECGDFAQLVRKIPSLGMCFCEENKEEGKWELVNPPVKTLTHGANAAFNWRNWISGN

[2] = molecular target: T2, KAT8 Histone acetyltransferase KAT8 C416 (Q9H7Z6) (Homo sapiens, UniProt Q9H7Z6)
T2 construct: endogenous in cells; host or cells: primary human T cells
T2 sequence (Q9H7Z6 1-458): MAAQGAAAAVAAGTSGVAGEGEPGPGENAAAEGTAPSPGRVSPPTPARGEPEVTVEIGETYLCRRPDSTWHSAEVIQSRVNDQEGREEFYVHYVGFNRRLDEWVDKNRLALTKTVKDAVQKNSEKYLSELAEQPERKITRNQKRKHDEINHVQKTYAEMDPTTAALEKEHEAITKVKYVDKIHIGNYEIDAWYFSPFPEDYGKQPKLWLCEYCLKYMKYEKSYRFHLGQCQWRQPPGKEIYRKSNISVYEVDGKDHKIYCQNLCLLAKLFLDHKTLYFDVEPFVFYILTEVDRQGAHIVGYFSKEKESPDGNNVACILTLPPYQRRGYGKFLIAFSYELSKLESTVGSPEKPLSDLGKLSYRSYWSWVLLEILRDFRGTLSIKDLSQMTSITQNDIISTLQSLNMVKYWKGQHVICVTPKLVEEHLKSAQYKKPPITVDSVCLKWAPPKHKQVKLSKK

[3] = molecular target: T3, MAPK9 Mitogen-activated protein kinase 9 C177 (P45984) (Homo sapiens, UniProt P45984)
T3 construct: endogenous in cells; host or cells: primary human T cells
T3 sequence (P45984 whole entry): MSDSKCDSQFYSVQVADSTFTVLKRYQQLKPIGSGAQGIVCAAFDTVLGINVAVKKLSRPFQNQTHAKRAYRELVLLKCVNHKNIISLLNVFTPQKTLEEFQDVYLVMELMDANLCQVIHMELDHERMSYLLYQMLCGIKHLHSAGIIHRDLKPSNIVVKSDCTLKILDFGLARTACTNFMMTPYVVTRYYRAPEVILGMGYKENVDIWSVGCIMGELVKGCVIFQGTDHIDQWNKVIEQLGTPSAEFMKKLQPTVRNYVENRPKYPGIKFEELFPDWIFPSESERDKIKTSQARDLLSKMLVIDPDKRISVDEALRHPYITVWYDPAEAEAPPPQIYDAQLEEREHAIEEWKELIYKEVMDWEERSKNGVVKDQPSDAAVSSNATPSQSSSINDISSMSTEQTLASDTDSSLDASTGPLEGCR

## O=C(CCl)N1CCN(S(=O)(=O)c2ccc(-c3ccncc3)cc2)CC1 [Compound B9]
[1]
  Cysteine reactivity proteomic data: 78.65
[2]
  Cysteine reactivity proteomic data: 67.98
[3]
  Cysteine reactivity proteomic data: 72.19
